From patent US9833497B2, “Human originated EGF domain proteins and use of the same” (CHENGDU SOURCEBIO LIMITED-LIABILITY COMPANY, priority 2013, dated 2017)

Key:
Assay type in all cases: cell-based
[1] = tested on: E. coli DH5α; assay: Antibacterial activity: MIC and growth curve against E. coli DH5α in 96-well plate; conditions: minimal inhibitory concentration against E. coli DH5α; 96-well plate, 5×10^5 CFU/mL, 37° C., judged after 8 h
Summary of the method: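 Log-phase bacteria (OD600 ~0.5) resuspended in LB at 5×10^5 CFU/mL, exposed to recombinant protein at 50, 25, 12.5 μg/mL final in triplicate, 37 °C shaking at 175 rpm. OD600 read every 30 min; MIC is lowest concentration showing no growth.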

[2] = tested on: E. coli BL21; assay: MIC against Gram-negative bacteria: E. coli BL21
Summary of the method: (§1)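 First, colonies from LB agar were grown in LB at 37° C, 185 rpm, to McFarland turbidity 0.5, then centrifuged and resuspended in fresh LB. Next, wells received 5×10^5 CFU/mL bacteria plus two-fold serially diluted EGF domain protein (triplicate). Finally, plates were shaken at 37° C and the no-growth concentration taken as MIC.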

[3] = tested on: Pseudomonas aeruginosa; assay: MIC against Gram-negative bacteria: Pseudomonas aeruginosa
Summary of the method: as §1

[4] = tested on: Klebsiella pneumonia; assay: MIC against Gram-negative bacteria: Klebsiella pneumonia
Summary of the method: as §1

[5] = tested on: Enterobacter cloacae; assay: MIC against Gram-negative bacteria: Enterobacter cloacae
Summary of the method: as §1

[6] = tested on: Aeromonas hydrophila; assay: MIC against Gram-negative bacteria: Aeromonas hydrophila
Summary of the method: as §1

[7] = tested on: Citrobacter diversus; assay: MIC against Gram-negative bacteria: Citrobacter diversus
Summary of the method: as §1

[8] = tested on: Moraxella catarrhalis; assay: MIC against Gram-negative bacteria: Moraxella catarrhalis
Summary of the method: as §1

[9] = tested on: Proteus mirabilis; assay: MIC against Gram-negative bacteria: Proteus mirabilis
Summary of the method: as §1

[10] = tested on: Proteus vulgaris; assay: MIC against Gram-negative bacteria: Proteus vulgaris
Summary of the method: as §1

[11] = tested on: Serratia marcescens; assay: MIC against Gram-negative bacteria: Serratia marcescens
Summary of the method: as §1

[12] = E. coli BL21, 10 h cultivation at 37° C., 5×10^5 CFU/mL
[13] = P. aeruginosa, 10 h cultivation at 37° C., 5×10^5 CFU/mL
[14] = K. pneumonia, 10 h cultivation at 37° C., 5×10^5 CFU/mL
[15] = E. cloacae, 10 h cultivation at 37° C., 5×10^5 CFU/mL
[16] = A. hydrophila, 10 h cultivation at 37° C., 5×10^5 CFU/mL
[17] = C. diversus, 10 h cultivation at 37° C., 5×10^5 CFU/mL
[18] = M. catarrhalis, 10 h cultivation at 37° C., 5×10^5 CFU/mL
[19] = P. mirabilis, 10 h cultivation at 37° C., 5×10^5 CFU/mL
[20] = P. vulgaris, 10 h cultivation at 37° C., 5×10^5 CFU/mL
[21] = S. marcescens, 10 h cultivation at 37° C., 5×10^5 CFU/mL
[22] = E. coli BL21, 96-well plate, 5×10^5 CFU/mL, 37° C., 10 h
[23] = Pseudomonas aeruginosa, 96-well plate, 5×10^5 CFU/mL, 37° C., 10 h
[24] = Klebsiella pneumonia, 96-well plate, 5×10^5 CFU/mL, 37° C., 10 h
[25] = Enterobacter cloacae, 96-well plate, 5×10^5 CFU/mL, 37° C., 10 h
[26] = Aeromonas hydrophila, 96-well plate, 5×10^5 CFU/mL, 37° C., 10 h
[27] = Citrobacter diversus, 96-well plate, 5×10^5 CFU/mL, 37° C., 10 h
[28] = Moraxella catarrhalis, 96-well plate, 5×10^5 CFU/mL, 37° C., 10 h
[29] = Proteus mirabilis, 96-well plate, 5×10^5 CFU/mL, 37° C., 10 h
[30] = Proteus vulgaris, 96-well plate, 5×10^5 CFU/mL, 37° C., 10 h
[31] = Serratia marcescens, 96-well plate, 5×10^5 CFU/mL, 37° C., 10 h
[32] = 96-well plate, 5×10^5 CFU/mL, 37° C., 10 h

With “PRT207 (RSSNCSAQCHNHGVCNHKQECHCHAGWAPPHCA; listed as Homo sapiens)” the MIC [1] was 12.5 µg/mL, the “MIC (μg/mL) E. coli BL21” value [2, 12] was 50 µg/mL and the “MIC (μg/mL) P. aeruginosa” value [3, 13] was 12.5 µg/mL. The “MIC (μg/mL) K. pneumonia” value [4, 14] was 50 µg/mL, the “MIC (μg/mL) E. cloacae” value [5, 15] was 12.5 µg/mL and the “MIC (μg/mL) A. hydrophila” value [6, 16] was 50 µg/mL. For the same substance, the “MIC (μg/mL) C. diversus” value [7, 17] was 12.5 µg/mL, the “MIC (μg/mL) M. catarrhalis” value [8, 18] was 50 µg/mL and the “MIC (μg/mL) P. mirabilis” value [9, 19] was 12.5 µg/mL. The “MIC (μg/mL) P. vulgaris” value [10, 20] was 25 µg/mL and the “MIC (μg/mL) S. marcescens” value [11, 21] was 50 µg/mL.

For “PRT91 (DTNECIQFPFVCPRDKPVCVNTYGSYRCRTNKKCSRGYEPNEDGTAC; listed as Homo sapiens)”, the MIC [1] was 12.5 µg/mL, the “MIC (μg/mL) E. coli BL21” value [2, 22] was 12.5 µg/mL and the “MIC (μg/mL) P. aeruginosa” value [3, 23] was 12.5 µg/mL. For the same substance, the “MIC (μg/mL) K. pneumonia” value [4, 24] was 12.5 µg/mL, the “MIC (μg/mL) E. cloacae” value [5, 25] was 12.5 µg/mL and the “MIC (μg/mL) A. hydrophila” value [6, 26] was 25 µg/mL. For the same substance, the “MIC (μg/mL) C. diversus” value [7, 27] was 12.5 µg/mL, the “MIC (μg/mL) M. catarrhalis” value [8, 28] was 25 µg/mL and the “MIC (μg/mL) P. mirabilis” value [9, 29] was 12.5 µg/mL. The “MIC (μg/mL) P. vulgaris” value [10, 30] was 50 µg/mL and the “MIC (μg/mL) S. marcescens” value [11, 31] was 12.5 µg/mL.

With “PRT1238 (IGEACPKLCSGHGYCTTGAICICDESFQGDDCS; listed as Homo sapiens)” the MIC [1] was 25 µg/mL, the “MIC against E. coli BL21” value [2, 22] was 12.5 µg/mL and the “MIC against P. aeruginosa” value [3, 23] was 50 µg/mL. For the same substance, the “MIC against K. pneumonia” value [4, 24] was 12.5 µg/mL, the “MIC against E. cloacae” value [5, 25] was 50 µg/mL and the “MIC against A. hydrophila” value [6, 26] was 12.5 µg/mL. For the same substance, the “MIC against C. diversus” value [7, 27] was 50 µg/mL, the “MIC against M. catarrhalis” value [8, 28] was 25 µg/mL and the “MIC against P. mirabilis” value [9, 29] was 12.5 µg/mL. The “MIC against P. vulgaris” value [10, 30] was 25 µg/mL and the “MIC against S. marcescens” value [11, 31] was 50 µg/mL.

“PRT1007 (HVNPCESRPCQNGATCMAQPSGYLCQCAPGYDGQNCS; listed as Homo sapiens)” gave an MIC [1] of 25 µg/mL, an MIC ([2]; E. coli BL21, 10 h cultivation at 37° C.) of 12.5 µg/mL and an MIC ([3]; P. aeruginosa, 10 h cultivation at 37° C.) of 25 µg/mL. It also gave an MIC ([4]; K. pneumonia, 10 h cultivation at 37° C.) of 50 µg/mL, an MIC ([5]; E. cloacae, 10 h cultivation at 37° C.) of 12.5 µg/mL and an MIC ([6]; A. hydrophila, 10 h cultivation at 37° C.) of 50 µg/mL. The MIC ([7]; C. diversus, 10 h cultivation at 37° C.) was 12.5 µg/mL, the MIC ([8]; M. catarrhalis, 10 h cultivation at 37° C.) was 50 µg/mL and the MIC ([9]; P. mirabilis, 10 h cultivation at 37° C.) was 25 µg/mL. For the same substance, the MIC ([10]; P. vulgaris, 10 h cultivation at 37° C.) was 12.5 µg/mL and the MIC ([11]; S. marcescens, 10 h cultivation at 37° C.) was 25 µg/mL.

“PRT752 (TAHMCSTLEHNCAHFCINIPGSYVCRCKQGYILNSDQTTCR; listed as Homo sapiens)” was tested, and the MIC [1] was 50 µg/mL, the “MIC (μg/mL) E. coli BL21” value [2, 12] was 25 µg/mL and the “MIC (μg/mL) P. aeruginosa” value [3, 13] was 12.5 µg/mL. The “MIC (μg/mL) K. pneumonia” value [4, 14] was 12.5 µg/mL, the “MIC (μg/mL) E. cloacae” value [5, 15] was 12.5 µg/mL and the “MIC (μg/mL) A. hydrophila” value [6, 16] was 50 µg/mL. For the same substance, the “MIC (μg/mL) C. diversus” value [7, 17] was 12.5 µg/mL, the “MIC (μg/mL) M. catarrhalis” value [8, 18] was 25 µg/mL and the “MIC (μg/mL) P. mirabilis” value [9, 19] was 50 µg/mL. The “MIC (μg/mL) P. vulgaris” value [10, 20] was 25 µg/mL and the “MIC (μg/mL) S. marcescens” value [11, 21] was 12.5 µg/mL.

With “PRT599 (CECDPDGTISGGICVSHSDPALGSVAGQCLCKENVEGAKCDQCKPNHYGLSATDPLGCQP; listed as Homo sapiens)” the MIC [1] was 12.5 µg/mL, the “MIC E. coli BL21” value [2, 32] was 25 µg/mL and the “MIC P. aeruginosa” value [3, 32] was 50 µg/mL. The “MIC K. pneumonia” value [4, 32] was 12.5 µg/mL, the “MIC E. cloacae” value [5, 32] was 50 µg/mL and the “MIC A. hydrophila” value [6, 32] was 12.5 µg/mL. For the same substance, the “MIC C. diversus” value [7, 32] was 50 µg/mL, the “MIC M. catarrhalis” value [8, 32] was 12.5 µg/mL and the “MIC P. mirabilis” value [9, 32] was 50 µg/mL. For the same substance, the “MIC P. vulgaris” value [10, 32] was 12.5 µg/mL and the “MIC S. marcescens” value [11, 32] was 50 µg/mL.
